Legend:
[1] = test system: J774 A.1 cells; assay: FACS competition assay: FITC-rBAG3 binding to J774 A.1 cells with BAG3 peptides or F(ab′)2 fragments; format: cell-based, murine; conditions: 14 nM FITC-BAG3, 625 nM of BAG3 peptides
Description: (§1) We addressed the functional significance of BAG3 release by cardiomyocytes. […] Therefore we investigated whether BAG3 could interact with blood cells. […] BAG3 binding to macrophages was specifically impaired by competing BAG3 peptides or by BAG3-sequestering F(ab′)2 fragments from anti-BAG3 monoclonal antibodies (Table I). In particular J774 cells were incubated with 14 nM FITC-BAG3 protein and with 625 nM of BAG3 peptides (peptide 1, peptide 2, peptide 3, peptide 4 or scrambled peptide) or with 420 nM of F(ab′)2 fragments from anti-BAG3 monoclonal and polyclonal antibodies (mouse monoclonal AC1, AC2 and rabbit polyclonal TOS2). F(ab′)2 fragments from mouse IgG or F(ab′)2 fragments from rabbit IgG were used as a negative control.
Competition—J774 A.1 cells (2.5×105/100 μl) were incubated with 625 nM of BAG3 peptides (peptide 1, peptide 2, peptide 3, peptide 4 or scrambled peptide) or with 420 nM of F(ab′)2 fragments from anti-BAG3 monoclonal and polyclonal antibodies (mouse monoclonal AC1, AC2 and rabbit polyclonal TOS2) or F(ab′)2 fragments from mouse IgG or F(ab′)2 fragments from rabbit IgG in PBS containing 2% FBS+0.1% NaN3 for 30 min on ice. After incubation the cells were washing with PBS and then were incubated with of FITC-rBAG3 protein (14 nM), in PBS containing 2% FBS+0.1% NaN3 for 30 min at 4° C. in the dark. After washing with PBS, the cells were resuspended in PBS+2% FBS+0.1% NaN3 and analyzed by flow cytometer (BD Biosciences).

[2] = test system: J774 A.1 cells; assay: FACS analysis of FITC-rBAG3 binding to J774 A.1 macrophages; format: cell-based, murine
Description: FIG. 3B: BAG3 binds macrophages. J774 A1 macrophages (1×10^6 cells/ml) were incubated with different concentration of Fitc-BAG3 protein (7, 14 and 70 nm). FITC-BSA (70 nM) was used as a negative control (grey). Cells fluorescence was analyzed by flow cytometry.
as §1
rBAG3 binding—J774 A.1 cells were blocked with 2% FBS+0.1% NaN3 in PBS for 15 min on ice and incubated (2.5×105/100 μl) with different concentration of FITC-rBAG3 protein (7, 14 and 70 nm) or FITC-BSA (70 nM) in PBS containing 2% FBS+0.1% NaN3 for 30 min at 4° C. in the dark. After washing with PBS, the cells were resuspended in PBS+2% FBS+0.1% NaN3 and analyzed with a FACScan (BD Biosciences) flow cytometer.

[3] = test system: HCMa cells; assay: Confocal direct fluorescence, rBAG3-FITC binding to cardiomyocytes; format: cell-based, human; conditions: FIG. 3A, result in words
Description: FIG. 3A: Confocal microscopy analysis of direct fluorescence performed for detection of rBAG3-FITC binding to HCMa cells (a, b, c) and J774 A1 cells (d, e, f, g, h, i). BAG3 recombinant protein and purified BSA (albumin from bovine serum purchased from SIGMA) were conjugated to FITC using the FluoroTag FITC Conjugation Kit purchased from SIGMA following the manufacturer instructions. Equal amount of rBAG3-FITC (b, e) and BSA-FITC (h) proteins, calculated following the manufacturer instructions, were added in HCM and J774 A1 culture media with 0.1% NaN3 […] (a, d, g). Cells were analyzed by a Zeiss LSM confocal microscope. Merged images are shown in c, f and i.
We addressed the functional significance of BAG3 release by cardiomyocytes. […]
Cells were cultured on coverslips in six-well plates to 60-70% confluence and equal amount of rBAG3-FITC and BSA-FITC proteins were added in HCMa and J774 A1 culture media with 0.1% NaN3 for 1 h. […] Samples were analyzed using a confocal laser scanning microscope (Zeiss LSM confocal microscope, Germany). […] For production of figures, brightness and contrast of images were adjusted by taking care to leave a light cellular fluorescence background for visual appreciation of the lowest fluorescence intensity features and to help comparison among the different experimental groups. […]

[4] = test system: J774 A1 macrophages; assay: Cox-2 and iNOS levels in J774 A1 macrophages incubated with BAG3 (western blot); format: cell-based, murine; conditions: BAG3-treated macrophages, 20 hours, FIG. 3C panel a
Description: FIG. 3C panel a—Analysis of Cox-2 and iNOS levels in J774 A1 macrophages incubated with BAG3. J774 A1 cells at 80% confluency were incubated with control medium, BSA, LPS or rBAG3, for 20 hours. Polymixin was added where indicated to verify that the effects of E. coli-derived rBAG3 were independent from the presence of contaminating endotoxin. Cox-2 and iNOS expression were analyzed in cell lysates by Western blotting. To explore functional consequences of BAG3 binding to macrophages, we tested the effect of recombinant BAG3 on the expression of inducible nitric oxide synthase (iNOS) and cyclooxygenase (Cox)-2 in the cells. As shown in FIG. 3C panel a the levels of those enzymes were enhanced in BAG3-treated macrophages. […] Soluble proteins were collected after a centrifugation at 10,000 g for 15 min and their amount was determined by Bradford assay (Bio-Rad, Hercules, Calif.). […] Immunoreactivity was detected by sequential incubation with horseradish peroxidase-conjugated secondary antibodies purchased from Pierce (Rockford, Ill.) and ECL detection reagents purchased from Amersham Life Sciences Inc. (Arlington Heights, Ill., USA).

[5] = test system: J774 A1 macrophages; assay: Nitrite release from J774 A1 macrophages (Griess reaction); format: cell-based, murine; conditions: J774 A1, 24 hours, FIG. 3C panel b
Description: FIG. 3C panel b—Analysis of nitrite release from J774 A1 macrophages incubated with BAG3. J774 A1 cells at 80% confluency were incubated with control medium, BSA, LPS or rBAG3 for 24 hours. 100 μl of supernatants from each sample were incubated with 100 μl of Griess reagent; the optical density at 550 nm (OD550) was measured with a Beckman DU62 spectrophotometer. Nitrite concentration was evaluated by comparing the OD550 of the sample with that of a standard curve of sodium nitrite. Nitrite content (NO2^−), a stable metabolite of NO released by cells in the culture supernatant, was measured in J774 A.1 cells (5×104/in 96-well microplates) treated with LPS (10 ng/ml) or with rBAG3 (7, 14 and 28 nM) or BSA (28 nM) for 24 hours in absence or presence of polymyxin B sulfate (Sigma-Aldrich, St. Louis, Mo., USA) 5 μg/ml. NO2^− amounts were measured by Griess reaction. Briefly, 100 μL of cell culture medium were mixed with 100 μL of Griess reagent—equal volumes of 1% (w:v) sulphanilamide in 5% (v:v) phosphoric acid and 0.1% (w:v) naphtylethylenediamine-HCl—and incubated at room temperature for 10 min, and then the absorbance was measured at 550 nm in a microplate reader Titertek (Dasit, Cornaredo, Milan, Italy). The amount of NO2- (as μM) in the samples was calculated from a sodium nitrite standard curve.

[6] = test system: J774 A1 macrophages; assay: IL-6 release from J774 A1 macrophages (ELISA); format: cell-based, murine; conditions: J774 A1, FIG. 3C panel c
Description: FIG. 3C panel c—Analysis of IL-6 release from J774 A1 macrophages incubated with BAG3. J774 A1 cells at 80% confluency macrophages were incubated with control medium, BSA, LPS or recombinant BAG3 for 5 hours. BAG3 peptides (peptide 1, peptide 2, peptide 3, peptide 4 or scrambled peptide) 625 nM were added where indicated to verify their ability to block BAG3 activity. IL-6 production was measured in cell culture medium using an ELISA test. IL-6 concentration was evaluated by comparing the OD of the sample with that of a standard curve of recombinant IL-6. IL6 was measured in supernatant of J774 A.1 cells (5×10^4/in 96-well microplates) treated with LPS (10 ng/ml) or with rBAG3 (14 nM) or BSA (14 nM) for 10 or 20 hours in absence or presence of polymyxin B sulfate (5 μg/ml). After treatment 50 μL of cell culture medium were collected and analyzed in triplicate with a mouse IL6 Kit (eBioscience).

Substance	Competiton assays % inhibition [1]	Competiton assays % of positive cells (±S.D.) [1]	also measured
DRDPLPPGWEIKIDPQ (listed as Homo sapiens) [Pep1, 11]	98.4%	0.18 (±0.05) %	–
SSPKSVATEERAAPS (listed as Homo sapiens) [Pep2, 12]	89.1%	1.21 (±0.63) %	–
FITC-rBAG3: BAG3 recombinant protein conjugated to FITC	–	–	binding to macrophages of the cell line J774 ([2]; FIG. 3B, result in words): bound; FITC-rBAG3 % of positive cells (±S.D.) ([2]; J774 cells, flow cytometry): 15.7 (±0.45) %; binding to the cardiomyocyte surface [3]: did not apparently bind
FITC-BSA: purified albumin from bovine serum conjugated to FITC, negative control	–	–	FITC-BSA % of positive cells (±S.D.) ([2]; J774 cells, flow cytometry, negative control): 4.04 (±0.06) %
recombinant BAG3: E. coli-derived recombinant BAG3 protein; human BAG3 is SEQ ID NO:15	–	–	expression of inducible nitric oxide synthase (iNOS) and cyclooxygenase (Cox)-2 [4]: enhanced; release of nitrite [5]: induced the release; release of interleukin (IL)-6 [6]: induced the release
DKGKKNAGNAEDPHT (listed as Homo sapiens) [Pep3, 13]	47.2%	5.86 (±0.43) %	–
NPSSMTDTPGNPAAP (listed as Homo sapiens) [Pep4, 14]	93.8%	0.68 (±0.20) %	–

Source: patent US10359433B2, “BAG3 as biochemical serum and tissue marker” (BIOUNIVERSA S.R.L., priority 2012, dated 2019)
